Measurements as given in patent US20190194148A1, “TETRAZOLE-CONTAINING 1,2-CYCLOPROPANE-CARBOXAMIDES” (Bayer Pharma Aktiengesellschaft, priority 2017, published 2019).
Read-outs that look alike come from different tables or passages of the source.

Molecular target: T1, human B1 receptor (Homo sapiens, UniProt P46663)
T1 construct: host or cells: CHO-K1
T1 sequence (P46663 1-353): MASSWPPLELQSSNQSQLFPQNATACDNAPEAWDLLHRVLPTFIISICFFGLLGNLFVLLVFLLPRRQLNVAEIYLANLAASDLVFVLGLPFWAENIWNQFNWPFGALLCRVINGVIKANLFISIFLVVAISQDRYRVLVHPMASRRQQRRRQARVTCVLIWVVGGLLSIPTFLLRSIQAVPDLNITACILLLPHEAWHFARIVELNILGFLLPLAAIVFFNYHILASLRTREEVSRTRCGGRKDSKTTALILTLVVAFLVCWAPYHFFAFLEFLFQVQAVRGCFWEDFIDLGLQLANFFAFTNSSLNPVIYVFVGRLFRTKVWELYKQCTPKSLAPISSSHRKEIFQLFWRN
Experiment: Calcium flux assay (FLIPR) with recombinant CHO-K1 cells expressing human B1 receptor
Type: cell-based
Description: The potency to inhibit the Bradykinin B1 receptors was determined for the example compounds of this invention in a cell-based fluorescent calcium-mobilisation assay. The assay measures the ability of example compounds to inhibit Bradykinin B1 receptor agonist-induced increase of intracellular free Ca^2+ in the cell line expressing B1 receptor. Specifically, calcium indicator-loaded cells are pre-incubated in the absence or presence of different concentrations of example compounds followed by the stimulation with a selective B1 receptor agonist peptide. The change of the intracellular Ca^2+ concentration is monitored with a fluorescent plate reader FLIPR (Molecular Devices).
Calcium Flux Assays (FLIPR) with Cells Expressing Bradykinin B1 Receptor Calcium Flux Assay (FLIPR) with Recombinant Cells for Bradykinin B1 Receptor Antagonist, Either in the Presence (hB1 IC50) or Absence (hB1 free IC50) of 0.1% Bovine Serum Albumin (BSA) in Assay Buffer
CHO-K1 cell line expressing human B1 receptor was purchased from Euroscreen (Gosselies, Belgium, with reference name hB1-D1). The cells were grown in Nutrient Mixture Ham's F12 (Sigma) containing 10% Foetal bovine serum (Sigma) and 400 μg/mL G418 (Sigma), 5 μg/mL puromycin (Sigma).
For the calcium flux assay, 80% confluent cells were detached from the culture vessels with Versene (Gibco), and seeded into 384-well plates (Cell binding Surface; Corning, N.Y.; #3683) at a density of 15,000 cells per well. Cells were seeded in a volume of 50 μL in medium without antibiotics and incubated overnight in a humidified atmosphere with 5% CO2 at 37° C. […] The calcium indicator loaded cells were incubated at 37° C. for 2 hrs. Extracellular dye was then removed and each well was filled with 45 μL of assay buffer. Cell plates were kept in dark until used. Example compounds were assayed at 8 concentrations in triplicate. Serial 10-fold dilutions in 100% DMSO were made at a 100-times higher concentration than the final concentration, and then diluted 1:10 in assay buffer. 5 μL of each diluted compound was added to the well of cell plates (yielding final concentration with 1% DMSO), and incubated for 30 min at 28° C. before the addition of B1 receptor agonist on the FLIPR instrument.
Agonist plates contained the agonist Lys-(Des-Arg)-Bradykinin (Bachem, Brackley) at 3.5×EC90 in assay buffer with 1% DMSO. The addition of agonist 20 μl per well to the assay plate was carried out on the FLIPR instrument while continuously monitoring Ca^2+-dependent fluorescence at 538 nm. A peptide antagonist Lys-(Des-Arg-Leu)-Bradykinin (Bachem, Brackley) at 20 μM was used to determine the full inhibition as control.
Peak fluorescence was used to determine the response to agonist obtained at each concentration of example compound by the following equation:
% Response=100*(RFU(example compound)−RFU(control)/(RFU(DMSO)−RFU(control)
Control=full inhibition by the peptide antagonist Lys-(Des-Arg-Leu)-Bradykinin at 20 μM
The response values were plotted against the logarithm of the compound concentrations. The compounds were tested in triplicates per plate and mean values were plotted in Excel XLfit to determine IC50 values, percentage of maximal inhibition and the Hill slopes.

[1] = presence of 0.1% BSA in assay buffer, read-out: hB1 IC50
[2] = absence of 0.1% BSA in assay buffer, read-out: hB1 free IC50

| SMILES | IC50 [1] [µM] | IC50 [2] [µM] |
| --- | --- | --- |
| COc1ccc(-c2cc(C)c(NC(=O)C3CC3c3ccc(Cl)cc3)cc2-c2nnn[nH]2)cc1OC (racemic) [Example 66, 2-(4-Chlorophenyl)-N-[3′,4′-dimethoxy-5-methyl-2-(1H-tetrazol-5-yl)biphenyl-4-yl]cyclopro-panecarboxamide] | 0.283 | – |
| COc1ccc(-c2cc(C)c(NC(=O)C3CC3C3CCCCC3)cc2-c2nnn[nH]2)cc1OC (racemic) [Example 67, 2-Cyclohexyl-N-[3′,4′ dimethoxy-5-methyl-2-(1H-tetrazol-5-yl)biphenyl-4-yl]cyclopro-panecarboxamide] | 0.43 | – |
| COc1cncc(-c2cc(C)c(NC(=O)C3CC3c3cccc(C)c3)cc2-c2nnn[nH]2)c1 (racemic) [Example 68, N-[4-(5-Methoxypyridin-3-yl)-2-methyl-5-(1H-tetrazol-5-yl)phenyl]-2-(3-methylphenyl)cyclo-propanecarboxamide] | 0.336 | – |
| COc1cncc(-c2cc(C)c(NC(=O)C3CC3C3CCCCC3)cc2-c2nnn[nH]2)c1 (racemic) [Example 69, 2-Cyclohexyl-N-[4-(5-methoxypyridin-3-yl)-2-methyl-5-(1H-tetrazol-5-yl)phenyl]cyclopropane-carboxamide] | 0.447 | – |
| Cc1cccc(C2CC2C(=O)Nc2cc(-c3nnn[nH]3)c(-c3ccc(C(F)(F)F)nc3)cc2C)c1 (racemic) [Example 70, 2-(3-Methylphenyl)-N-{2-methyl-5-(1H-tetrazol-5-yl)-4-[6-(trifluoromethyl)pyridin-3-yl]phenyl}cyclopro-panecarboxamide] | 0.086 | 0.157 |
| Cc1cc(-c2ccc(C(F)(F)F)nc2)c(-c2nnn[nH]2)cc1NC(=O)C1CC1C1CCCCC1 (racemic) [Example 71, 2-Cyclohexyl-N-{2-methyl-5-(1H-tetrazol-5-yl)-4-[6-(trifluoromethyl)pyridin-3-yl]phenyl}cyclopro-panecarboxamide] | 0.263 | 0.308 |
| CCOc1ccc(-c2cc(C)c(NC(=O)C3CC3c3cccc(C)c3)cc2-c2nnn[nH]2)cc1OC (racemic) [Example 72, N-[4′-Ethoxy-3′-methoxy-5-methyl-2-(1H-tetrazol-5-yl)biphenyl-4-yl]-2-(3-methylphenyl)cyclopro-panecarboxamide] | 0.038 | – |
| CCOc1ccc(-c2cc(C)c(NC(=O)C3CC3C3CCCCC3)cc2-c2nnn[nH]2)cc1OC (racemic) [Example 73, 2-Cyclohexyl-N-[4′-ethoxy-3′-methoxy-5-methyl-2-(1H-tetrazol-5-yl)biphenyl-4-yl]cyclopro-panecarboxamide] | 0.226 | – |
| COc1ccc(-c2cc(C)c(NC(=O)C3CC3C3CCCCC3)cc2-c2nnn[nH]2)cc1C (racemic) [Example 74, 2-Cyclohexyl-N-[4′-methoxy-3′,5-dimethyl-2-(1H-tetrazol-5-yl)biphenyl-4-yl]cyclopro-panecarboxamide] | 0.299 | – |
| Cc1cccc(C2CC2C(=O)Nc2ccc(-c3cc4ccccc4s3)c(-c3nnn[nH]3)c2)c1 (racemic) [Example 76, N-[4-(1-Benzothiophen-2-yl)-3-(1H-tetrazol-5-yl)phenyl]-2-(3-methylphenyl)cyclopro-panecarboxamide] | – | 0.249 |
| CCOc1ccc(-c2ccc(NC(=O)C3CC3c3cccc(C)c3)cc2-c2nnn[nH]2)cc1OC (racemic) [Example 77, N-[4′-ethoxy-3′-methoxy-2-(1H-tetrazol-5-yl)biphenyl-4-yl]-2-(3-methylphenyl)cyclopro-panecarboxamide] | 0.012 | – |
| O=C(Nc1ccc(-c2ccc(C(F)(F)F)nc2)c(-c2nnn[nH]2)c1)C1CC1c1ccc(Cl)cc1 (racemic) [Example 79, 2-(4-chlorophenyl)-N-{3-(1H-tetrazol-5-yl)-4-[6-(trifluoro-methyl)pyridin-3-yl]phenyl}cyclopropane-carboxamide] | 6.46 | 0.071 |
| Cn1cc(-c2ccc(NC(=O)C3CC3c3ccc(Cl)cc3)cc2-c2nnn[nH]2)cn1 (racemic) [Example 80, 2-(4-chlorophenyl)-N-[4-(1-methyl-1H-pyrazol-4-yl)-3-(1H-tetrazol-5-yl)phenyl]cyclopropane-carboxamide] | 12.4 | 1.31 |
| CCOc1ccc(-c2ccc(NC(=O)C3CC3c3cnn(C)c3)cc2-c2nnn[nH]2)cn1 (racemic) [Example 81, N-[4-(6-ethoxypyridin-3-yl)-3-(1H-tetrazol-5-yl)phenyl]-2-(1-methyl-1H-pyrazol-4-yl)cyclopro-panecarboxamide] | 4.07 | 2.5 |
| COCc1ccc(-c2ccc(NC(=O)C3CC3C3CCCCC3)cc2-c2nnn[nH]2)cc1 (racemic) [Example 82, 2-cyclohexyl-N-[4′-(methoxymethyl)-2-(1H-tetrazol-5-yl)biphenyl-4-yl]cyclopropanecarbox-amide] | 2.55 | – |
| COc1ccc(-c2ccc(NC(=O)C3CC3C3CCCCC3)cc2-c2nnn[nH]2)cc1C (single isomer, unassigned) [Example 35, 2-Cyclohexyl-N-[4′-methoxy-3′-methyl-2-(1H-tetrazol-5-yl)biphenyl-4-yl]cyclopropanecarbox-amide] | 0.378 | – |
| CCOc1ccc(-c2cc(O)c(NC(=O)C3CC3c3ccc(Cl)cc3)cc2-c2nnn[nH]2)cn1 (single isomer, unassigned) [Example 49, 2-(4-chlorophenyl)-N-[4-(6-ethoxypyridin-3-yl)-2-hydroxy-5-(1H-tetrazol-5-yl)phenyl]cyclopropane-carboxamide] | 1.58 | – |
| CCOc1ccc(-c2cc(O)c(NC(=O)C3CC3c3ccc(Cl)cc3)cc2-c2nnn[nH]2)cn1 (single isomer, unassigned) [Example 50, 2-(4-chlorophenyl)-N-[4-(6-ethoxypyridin-3-yl)-2-hydroxy-5-(1H-tetrazol-5-yl)phenyl]cyclopropane-carboxamide] | 0.024 | – |
| CC(C)(C)c1cn(-c2ccc(NC(=O)C3CC3c3ccc(Cl)cc3)cc2-c2nnn[nH]2)cn1 (single isomer, unassigned) [Example 84, N-[4-(4-tert-butyl-1H-imidazol-1-yl)-3-(1H-tetrazol-5-yl)phenyl]-2-(4-chlorophenyl)cyclopropanecarboxamide] | – | 0.004 |
| CC(C)(C)c1cn(-c2ccc(NC(=O)C3CC3c3ccc(Cl)cc3)cc2-c2nnn[nH]2)cn1 (single isomer, unassigned) [Example 85, N-[4-(4-tert-butyl-1H-imidazol-1-yl)-3-(1H-tetrazol-5-yl)phenyl]-2-(4-chlorophenyl)cyclopropanecarboxamide] | – | 0.147 |
| CC[C@@H]1CCN(c2ccc(NC(=O)C3CC3c3ccc(Cl)cc3)cc2-c2nnn[nH]2)C1=O (stereo partly drawn) [Example 75, 2-(4-Chlorophenyl)-N-{4-[(3R)-3-ethyl-2-oxopyrrolidin-1-yl]-3-(1H-tetrazol-5-yl)phenyl}cyclopropane-carboxamide] | – | 0.458 |
| O=C(Nc1cc(-c2nnn[nH]2)c(-c2ccc(C(F)(F)F)nc2)cc1O)C1CC1c1ccc(Cl)cc1 (stereo not shown) [Example 83, 2-(4-chlorophenyl)-N-[2-hydroxy-5-(1H-tetrazol-5-yl)-4-[6-(trifluoromethyl)-3-pyridyl]phenyl]cyclo-propanecarboxamide] | 0.484 | 0.188 |
